Numbers after ± are expanded uncertainties.
Legend:
[1] = refractive index (Na D-line) (dimensionless); xn = mol fraction of the nth substance listed; details: 81.5 kPa, Liquid, Standard Abbe refractometry
[2] = xn = mol fraction of the nth substance listed; details: 81.5 kPa, Liquid, Vibrating tube method

Clc1ccccc1 [chlorobenzene] + ClCCCl
Details	mass density, 293.15 K [kg/m3]	mass density, 303.15 K [kg/m3]	mass density, 313.15 K [kg/m3]	mass density, 323.15 K [kg/m3]	mass density, 333.15 K [kg/m3]	refractive index, 293.15 K	refractive index, 303.15 K	refractive index, 313.15 K	refractive index, 323.15 K	refractive index, 333.15 K
[1], x2 = 0	–	–	–	–	–	1.52455 ± 0.01	1.51902 ± 0.01	1.51346 ± 0.01	1.50781 ± 0.01	1.50223 ± 0.01
[1], x2 = 0.1022	–	–	–	–	–	1.51915 ± 0.01	1.51376 ± 0.01	1.50848 ± 0.01	1.50327 ± 0.01	1.49826 ± 0.01
[1], x2 = 0.2027	–	–	–	–	–	1.51388 ± 0.01	1.50871 ± 0.01	1.50361 ± 0.01	1.49855 ± 0.01	1.49366 ± 0.01
[1], x2 = 0.3126	–	–	–	–	–	1.50734 ± 0.01	1.50235 ± 0.01	1.49739 ± 0.01	1.4924 ± 0.01	1.4875 ± 0.01
[1], x2 = 0.4014	–	–	–	–	–	1.50115 ± 0.01	1.49625 ± 0.01	1.49135 ± 0.01	1.48642 ± 0.01	1.48154 ± 0.01
[1], x2 = 0.4994	–	–	–	–	–	1.49334 ± 0.01	1.48847 ± 0.01	1.48362 ± 0.01	1.47874 ± 0.01	1.47393 ± 0.01
[1], x2 = 0.6002	–	–	–	–	–	1.48436 ± 0.01	1.47949 ± 0.01	1.47465 ± 0.01	1.4698 ± 0.01	1.46504 ± 0.01
[1], x2 = 0.7	–	–	–	–	–	1.47478 ± 0.01	1.46991 ± 0.01	1.46504 ± 0.01	1.46017 ± 0.01	1.45535 ± 0.01
[1], x2 = 0.7999	–	–	–	–	–	1.46481 ± 0.01	1.45993 ± 0.01	1.455 ± 0.01	1.45001 ± 0.01	1.44502 ± 0.01
[1], x2 = 0.9007	–	–	–	–	–	1.45465 ± 0.01	1.44969 ± 0.01	1.44464 ± 0.01	1.43948 ± 0.01	1.43427 ± 0.01
[2], x2 = 0	1106.49 ± 10	1095.71 ± 10	1084.86 ± 10	1073.96 ± 10	1063.01 ± 10	–	–	–	–	–
[2], x2 = 0.1022	1117.76 ± 10	1106.63 ± 10	1095.44 ± 10	1084.22 ± 10	1073.02 ± 10	–	–	–	–	–
[2], x2 = 0.2027	1129.4 ± 10	1117.99 ± 10	1106.5 ± 10	1094.94 ± 10	1083.38 ± 10	–	–	–	–	–
[2], x2 = 0.3126	1142.87 ± 10	1131.14 ± 10	1119.28 ± 10	1107.34 ± 10	1095.38 ± 10	–	–	–	–	–
[2], x2 = 0.4014	1154.41 ± 10	1142.36 ± 10	1130.2 ± 10	1117.94 ± 10	1105.63 ± 10	–	–	–	–	–
[2], x2 = 0.4994	1167.89 ± 10	1155.52 ± 10	1142.99 ± 10	1130.34 ± 10	1117.61 ± 10	–	–	–	–	–
[2], x2 = 0.6002	1182.73 ± 10	1169.98 ± 10	1157.05 ± 10	1143.96 ± 10	1130.77 ± 10	–	–	–	–	–
[2], x2 = 0.7	1198.46 ± 10	1185.33 ± 10	1171.98 ± 10	1158.43 ± 10	1144.78 ± 10	–	–	–	–	–
[2], x2 = 0.7999	1215.33 ± 10	1201.74 ± 10	1187.98 ± 10	1173.96 ± 10	1159.89 ± 10	–	–	–	–	–
[2], x2 = 0.9007	1233.56 ± 10	1219.46 ± 10	1205.18 ± 10	1190.75 ± 10	1176.31 ± 10	–	–	–	–	–
